Data from patent publication US8492564B2 (priority 2008, dated 2013).

Tested on: not listed separately
Experiment: Intracranial self-stimulation (ICSS)
Assay type: in vivo
Conditions: 1.0 mg/kg, IP, rats, 1-hour test sessions

| SMILES | ICSS thresholds |
| --- | --- |
| COC(=O)[C@@H]1C[C@H](OC(C)=O)C(=O)[C@H]2[C@@]1(C)CC[C@H]1C(=O)O[C@H](c3ccoc3)C[C@]21C [Salvinorin A, salvinorin A] | significantly elevated |

Tested on: not listed separately
Experiment: Locomotor activity
Assay type: in vivo
Conditions: rats

| SMILES | effect on locomotor activity |
| --- | --- |
| COC(=O)[C@@H]1C[C@H](OC(C)=O)C(=O)[C@H]2[C@@]1(C)CC[C@H]1C(=O)O[C@H](c3ccoc3)C[C@]21C [Salvinorin A, salvinorin A] | without affecting locomotor activity |

Target: hKOPR (Homo sapiens (Human), UniProt P41145)
Experiment: biochemical
Conditions: not given

| SMILES | Efficacy (Percent of the maximal effect of U50,488H) | EC50 |
| --- | --- | --- |
| COC(=O)[C@@H]1C[C@H](OC(C)=O)C(=O)[C@H]2[C@@]1(C)CCC1C(=O)O[C@H](C(=O)O)C[C@@]12C (some centres unmarked) [Compound 7] | 99 ± 1% |  |
| CCOC[C@@H]1C[C@]2(C)[C@H]3C(=O)[C@@H](OC(C)=O)C[C@@H](C(=O)OC)[C@]3(C)CC[C@H]2C(=O)O1 [Compound 10] |  | > 1000 nM |

Same assay, conditions: read-out: EC50

| SMILES | EC50 |
| --- | --- |
| C=Cc1occc1[C@@H]1C[C@]2(C)[C@H]3C(=O)[C@@H](OC(C)=O)C[C@@H](C(=O)OC)[C@]3(C)CC[C@H]2C(=O)O1 [Compound 3] | 4.6 ± 0.1 nM |
| COC(=O)[C@@H]1C[C@H](OC(C)=O)C(=O)[C@H]2[C@@]1(C)CCC1C(=O)O[C@H](C(=O)O)C[C@@]12C (some centres unmarked) [Compound 7] | 167 ± 35 nM |
| COC[C@@H]1C[C@]2(C)[C@H]3C(=O)[C@@H](OC(C)=O)C[C@@H](C(=O)OC)[C@]3(C)CC[C@H]2C(=O)O1 [Compound 9] | 330 ± 30 nM |
| COC(=O)[C@@H]1C[C@H](OC(C)=O)C(=O)[C@H]2[C@@]1(C)CC[C@H]1C(=O)O[C@H](COC(C)=O)C[C@]21C [Compound 11] | 299 ± 13 nM |
| COC(=O)[C@@H]1C[C@H](OC(C)=O)C(=O)[C@H]2[C@@]1(C)CC[C@H]1C(=O)O[C@H](C(=O)c3cccs3)C[C@]21C [Compound 13] | 101 ± 6 nM |
| COC(=O)[C@@H]1C[C@H](OC(C)=O)C(=O)[C@H]2[C@@]1(C)CC[C@H]1C(=O)O[C@H](C(=O)c3cnccn3)C[C@]21C [Compound 16] | 195 ± 6 nM |
| COC(=O)[C@@H]1C[C@H](OC(C)=O)C(=O)[C@H]2[C@@]1(C)CC[C@H]1C(=O)O[C@H](C(O)c3ccco3)C[C@]21C (some centres unmarked) [Compound 17] | 36 ± 5 nM |
| COC(=O)[C@@H]1C[C@]2(C)[C@H]3C(=O)[C@@H](OC(C)=O)C[C@@H](C(=O)OC)[C@]3(C)CC[C@H]2C(=O)O1 [Compound 18] | 361 ± 25 nM |
| CCOC(=O)[C@@H]1C[C@]2(C)[C@H]3C(=O)[C@@H](OC(C)=O)C[C@@H](C(=O)OC)[C@]3(C)CC[C@H]2C(=O)O1 [Compound 19] | 508 ± 8 nM |
| COC(=O)[C@@H]1C[C@H](OC(C)=O)C(=O)[C@H]2[C@@]1(C)CC[C@H]1C(=O)O[C@H](C(=O)OC(C)C)C[C@]21C [Compound 20] | 337 ± 54 nM |

Same assay, conditions: read-out: Efficacy (Percent of the maximal effect of U50,488H)

| SMILES | Emax |
| --- | --- |
| C=Cc1occc1[C@@H]1C[C@]2(C)[C@H]3C(=O)[C@@H](OC(C)=O)C[C@@H](C(=O)OC)[C@]3(C)CC[C@H]2C(=O)O1 [Compound 3] | 120 ± 6% |
| COC[C@@H]1C[C@]2(C)[C@H]3C(=O)[C@@H](OC(C)=O)C[C@@H](C(=O)OC)[C@]3(C)CC[C@H]2C(=O)O1 [Compound 9] | 98 ± 2% |
| COC(=O)[C@@H]1C[C@H](OC(C)=O)C(=O)[C@H]2[C@@]1(C)CC[C@H]1C(=O)O[C@H](COC(C)=O)C[C@]21C [Compound 11] | 113 ± 3% |
| COC(=O)[C@@H]1C[C@H](OC(C)=O)C(=O)[C@H]2[C@@]1(C)CC[C@H]1C(=O)O[C@H](C(=O)c3cccs3)C[C@]21C [Compound 13] | 103 ± 1% |
| COC(=O)[C@@H]1C[C@H](OC(C)=O)C(=O)[C@H]2[C@@]1(C)CC[C@H]1C(=O)O[C@H](C(=O)c3cnccn3)C[C@]21C [Compound 16] | 103 ± 3% |
| COC(=O)[C@@H]1C[C@H](OC(C)=O)C(=O)[C@H]2[C@@]1(C)CC[C@H]1C(=O)O[C@H](C(O)c3ccco3)C[C@]21C (some centres unmarked) [Compound 17] | 114 ± 4% |
| COC(=O)[C@@H]1C[C@]2(C)[C@H]3C(=O)[C@@H](OC(C)=O)C[C@@H](C(=O)OC)[C@]3(C)CC[C@H]2C(=O)O1 [Compound 18] | 99 ± 2% |
| CCOC(=O)[C@@H]1C[C@]2(C)[C@H]3C(=O)[C@@H](OC(C)=O)C[C@@H](C(=O)OC)[C@]3(C)CC[C@H]2C(=O)O1 [Compound 19] | 94 ± 2% |
| COC(=O)[C@@H]1C[C@H](OC(C)=O)C(=O)[C@H]2[C@@]1(C)CC[C@H]1C(=O)O[C@H](C(=O)OC(C)C)C[C@]21C [Compound 20] | 94 ± 2% |

Tested on: not listed separately
Experiment: Forced swim test (FST)
Assay type: in vivo
Conditions: rats
Description: The FST is a two day procedure in which rats swim under conditions in which escape is not possible. On the first day, the rats are forced to swim for 15 minutes. The rats initially search for an escape from the water, but eventually adopt a posture of immobility in which they make only the movements necessary to keep their heads above water. Upon re-testing one day later, latencies to become immobile (an indicator of how rapidly the rats “give up” in response to a familiar stressor) are decreased, which is inferred as despair. Standard antidepressants such as desipramine (DMI) and fluoxetine (FLX) extend latencies to become immobile. Drug efficacy in this animal model is predictive of antidepressant efficacy in humans. The FST has been described by Mague et al., J. Pharmacol. Exp. Ther. 305:323 (2003).

| SMILES | effect in the forced swim test |
| --- | --- |
| COC(=O)[C@@H]1C[C@H](OC(C)=O)C(=O)[C@H]2[C@@]1(C)CC[C@H]1C(=O)O[C@H](c3ccoc3)C[C@]21C [Salvinorin A, salvinorin A] | depressive-like effects |

Target: human KOPR (hKOPR) (Homo sapiens (Human), UniProt P41145)
Experiment: not given
Assay type: binding
Conditions: not given

| SMILES | Ki |
| --- | --- |
| C=Cc1occc1[C@@H]1C[C@]2(C)[C@H]3C(=O)[C@@H](OC(C)=O)C[C@@H](C(=O)OC)[C@]3(C)CC[C@H]2C(=O)O1 [Compound 3] | 7.1 ± 0.1 nM |
| COC(=O)[C@@H]1C[C@H](OC(C)=O)C(=O)[C@H]2[C@@]1(C)CCC1C(=O)O[C@H](C(=O)O)C[C@@]12C (some centres unmarked) [Compound 7] | 55 ± 23 nM |
| COC[C@@H]1C[C@]2(C)[C@H]3C(=O)[C@@H](OC(C)=O)C[C@@H](C(=O)OC)[C@]3(C)CC[C@H]2C(=O)O1 [Compound 9] | 498 ± 71 nM |
| CCOC[C@@H]1C[C@]2(C)[C@H]3C(=O)[C@@H](OC(C)=O)C[C@@H](C(=O)OC)[C@]3(C)CC[C@H]2C(=O)O1 [Compound 10] | 497 ± 13 nM |
| COC(=O)[C@@H]1C[C@H](OC(C)=O)C(=O)[C@H]2[C@@]1(C)CC[C@H]1C(=O)O[C@H](COC(C)=O)C[C@]21C [Compound 11] | 555 ± 97 nM |
| COC(=O)[C@@H]1C[C@H](OC(C)=O)C(=O)[C@H]2[C@@]1(C)CC[C@H]1C(=O)O[C@H](C(=O)c3cccs3)C[C@]21C [Compound 13] | 38 ± 10 nM |
| COC(=O)[C@@H]1C[C@H](OC(C)=O)C(=O)[C@H]2[C@@]1(C)CC[C@H]1C(=O)O[C@H](C(=O)c3cnccn3)C[C@]21C [Compound 16] | 83 ± 28 nM |
| COC(=O)[C@@H]1C[C@H](OC(C)=O)C(=O)[C@H]2[C@@]1(C)CC[C@H]1C(=O)O[C@H](C(O)c3ccco3)C[C@]21C (some centres unmarked) [Compound 17] | 20 ± 2 nM |
| COC(=O)[C@@H]1C[C@]2(C)[C@H]3C(=O)[C@@H](OC(C)=O)C[C@@H](C(=O)OC)[C@]3(C)CC[C@H]2C(=O)O1 [Compound 18] | 154 ± 27 nM |
| CCOC(=O)[C@@H]1C[C@]2(C)[C@H]3C(=O)[C@@H](OC(C)=O)C[C@@H](C(=O)OC)[C@]3(C)CC[C@H]2C(=O)O1 [Compound 19] | 196 ± 23 nM |
| COC(=O)[C@@H]1C[C@H](OC(C)=O)C(=O)[C@H]2[C@@]1(C)CC[C@H]1C(=O)O[C@H](C(=O)OC(C)C)C[C@]21C [Compound 20] | 109 ± 12 nM |
